Read-outs that look alike come from different tables or passages of the source.
Columns and labels:
Assay type in all cases: cell-based
[1] = system: VP01 (suspected fungal vaginal pathogen); assay: Zone of inhibition against isolated vaginal pathogen VP01
From the text: (§1) Antimicrobial activities against isolated vaginal pathogens (i.e. VP01, VP02, VP06, VP03, VP04 and VP05) were individually screened and analyzed to conclude and find effective probiotic compositions.
(§2) Different combination of selected probiotics strains with variation in potency were formed and underwent potential antimicrobial effect against isolated vaginal bacterial and fungal pathogens. The extents of zone of inhibition in antimicrobial activity were considered for selection of formulation. The probiotic compositions of the present invention comprise (a) Bacillus coagulans (B.C.); (b) Bacillus subtilis (B.S.); (c) citric acid (CA); (d) gallic acid (GA); (e) beta-cyclodextrin (adhesive); (f) allentoin and (g) a pH regulator (h) lanolin (i) polyethylene glycol (j) a cooling agent etc., and (k) a bioadhesive.
(§3) The zones of inhibition were also examined for each individual components at the same concentration levels as present in the respective combined formulations.

[2] = system: VP02 (suspected fungal vaginal pathogen); assay: Zone of inhibition against isolated vaginal pathogen VP02
From the text: as §1, §2, §3

[3] = system: VP06, identified as Candida albicans
From the text: as §1, §2, §3
Vaginal swabs obtained from infected patients were grown on Potato Dextrose Agar (PDA) media, and thereafter single colonies were re-streaked on Potato Dextrose Agar plates to obtain fungal isolates, which were designated as VP06, VP02 and VP01. Potato Dextrose Agar is a common medium usually practiced to isolate and culture various fungi only, specifically applicable for yeast or fungi.

[4] = system: VP03, identified as Gardnerella vaginalis; assay: Zone of inhibition against isolated vaginal pathogen VP03
From the text: as §1, §2, §3

[5] = system: VP04 (suspected bacterial vaginal pathogen); assay: Zone of inhibition against isolated vaginal pathogen VP04
From the text: as §1, §2, §3

[6] = system: VP05 (suspected bacterial vaginal pathogen); assay: Zone of inhibition against isolated vaginal pathogen VP05
From the text: as §1, §2, §3

[7] = Table 1 initial studies, n-i = no zone of inhibition
[8] = Table 4, amounts as in formulation A: B.c 700, B.s 25 million cfu, CA 10, GA 100 mg, n-i = no zone
[9] = Table 5, amounts as in formulation B: B.c 550, B.s 125 million cfu, CA 20, GA 60 mg, n-i = no zone
[10] = Table 6, amounts as in formulation C: B.c 350, B.s 350 million cfu, CA 20, GA 40 mg, n-i = no zone
[11] = Table 7, amounts as in formulation D: B.c 125, B.s 550 million cfu, CA 60, GA 20 mg, n-i = no zone
[12] = Table 8, amounts as in formulation E: B.c 25, B.s 700 million cfu, CA 100, GA 10 mg, n-i = no zone

| Structure (SMILES) | ZONE OF INHIBITION VP01 [1, 7] [mm] | ZONE OF INHIBITION VP01 [1, 8] | ZONE OF INHIBITION VP01 [1, 9] | ZONE OF INHIBITION VP01 [1, 10] [mm] | ZONE OF INHIBITION VP01 [1, 11] [mm] | ZONE OF INHIBITION VP01 [1, 12] [mm] | ZONE OF INHIBITION VP02 [2, 7] [mm] | ZONE OF INHIBITION VP02 [2, 8] | ZONE OF INHIBITION VP02 [2, 9] | ZONE OF INHIBITION VP02 [2, 10] | ZONE OF INHIBITION VP02 [2, 11] | ZONE OF INHIBITION VP06 [3, 7] | ZONE OF INHIBITION VP06 [3, 8] | ZONE OF INHIBITION VP06 [3, 9] | ZONE OF INHIBITION VP06 [3, 10] | ZONE OF INHIBITION VP06 [3, 11] | ZONE OF INHIBITION VP06 [3, 12] | ZONE OF INHIBITION VP03 [4, 7] | ZONE OF INHIBITION VP03 [4, 9] [mm] | ZONE OF INHIBITION VP03 [4, 10] [mm] | also measured |
| --- | --- | --- | --- | --- | --- | --- | --- | --- | --- | --- | --- | --- | --- | --- | --- | --- | --- | --- | --- | --- | --- |
| O=C(O)c1cc(O)c(O)c(O)c1 [Gallic Acid (GA), gallic acid] | 35 | 19 mm | 17 mm | 16 | 16 | 13 | 35 | 16 mm | 15 mm | 15 mm | 18 mm | 9 mm | n-i | n-i | n-i | N-i | n-i | n-i | 5 | 7 | ZONE OF INHIBITION VP02 ([2]; Table 8, amounts as in formulation E: B.c 25, B.s 700 million cfu, CA 100, GA 10 mg, n-i = no zone, listed as GA): n-i; ZONE OF INHIBITION VP02 ([2]; Table 8, amounts as in formulation E: B.c 25, B.s 700 million cfu, CA 100, GA 10 mg, n-i = no zone, listed as Gallic Acid): not active; ZONE OF INHIBITION VP03 [4, 8]: 8 mm; ZONE OF INHIBITION VP03 ([4]; Table 7, amounts as in formulation D: B.c 125, B.s 550 million cfu, CA 60, GA 20 mg, n-i = no zone, listed as GA): n-i; ZONE OF INHIBITION VP03 ([4]; Table 7, amounts as in formulation D: B.c 125, B.s 550 million cfu, CA 60, GA 20 mg, n-i = no zone, listed as Gallic Acid): not active; ZONE OF INHIBITION VP03 [4, 12]: n-i; ZONE OF INHIBITION VP04 [5, 7]: 9 mm; ZONE OF INHIBITION VP04 [5, 8]: 10 mm; ZONE OF INHIBITION VP04 [5, 9]: 10 mm; ZONE OF INHIBITION VP04 [5, 10]: 9 mm; ZONE OF INHIBITION VP04 [5, 11]: 9 mm; ZONE OF INHIBITION VP04 [5, 12]: 7 mm; ZONE OF INHIBITION VP05 [6, 7]: 11 mm; ZONE OF INHIBITION VP05 [6, 8]: 7 mm; ZONE OF INHIBITION VP05 [6, 9]: 7 mm; ZONE OF INHIBITION VP05 [6, 10]: 6 mm; ZONE OF INHIBITION VP05 [6, 11]: 6 mm; ZONE OF INHIBITION VP05 [6, 12]: 6 mm |
| O=C(O)CC(O)(CC(=O)O)C(=O)O [Citric Acid (CA), citric acid] | 41 | n-i | n-i | 23 | 22 | 25 | 30 | n-i | n-i | n-i | n-i | n-i | n-i | n-i | n-i | n-i | n-i | 10 mm | 7 | 8 | ZONE OF INHIBITION VP02 ([2]; Table 8, amounts as in formulation E: B.c 25, B.s 700 million cfu, CA 100, GA 10 mg, n-i = no zone, listed as CA): n-i; ZONE OF INHIBITION VP02 ([2]; Table 8, amounts as in formulation E: B.c 25, B.s 700 million cfu, CA 100, GA 10 mg, n-i = no zone, listed as Citric acid): not active; ZONE OF INHIBITION VP03 ([4]; Table 4, amounts as in formulation A: B.c 700, B.s 25 million cfu, CA 10, GA 100 mg, n-i = no zone, listed as CA): n-i; ZONE OF INHIBITION VP03 ([4]; Table 4, amounts as in formulation A: B.c 700, B.s 25 million cfu, CA 10, GA 100 mg, n-i = no zone, listed as Citric Acid): unable to cause any inhibitory effect; ZONE OF INHIBITION VP03 ([4]; Table 7, amounts as in formulation D: B.c 125, B.s 550 million cfu, CA 60, GA 20 mg, n-i = no zone, listed as CA): n-i; ZONE OF INHIBITION VP03 ([4]; Table 7, amounts as in formulation D: B.c 125, B.s 550 million cfu, CA 60, GA 20 mg, n-i = no zone, listed as Citric acid): not active; ZONE OF INHIBITION VP03 [4, 12]: 9 mm; ZONE OF INHIBITION VP04 [5, 7]: 11 mm; ZONE OF INHIBITION VP04 [5, 8]: n-i; ZONE OF INHIBITION VP04 [5, 9]: n-i; ZONE OF INHIBITION VP04 [5, 10]: 10 mm; ZONE OF INHIBITION VP04 [5, 11]: 10 mm; ZONE OF INHIBITION VP04 [5, 12]: 11 mm; ZONE OF INHIBITION VP05 [6, 7]: 19 mm; ZONE OF INHIBITION VP05 [6, 8]: n-i; ZONE OF INHIBITION VP05 [6, 9]: n-i; ZONE OF INHIBITION VP05 [6, 10]: 8 mm; ZONE OF INHIBITION VP05 [6, 11]: 8 mm; ZONE OF INHIBITION VP05 [6, 12]: 10 mm |

From patent publication US20250009815A1, “COMPOSITION FOR COMPETITIVE INHIBITION OF PATHOGENS AND RESTORATION OF MICROBIAL ECOLOGICAL BALANCE” (priority 2019, published 2025)
